Assay results as given in ChEMBL document CHEMBL4130392, “Eugenol derived immunomodulatory molecules against visceral leishmaniasis” (Eur J Med Chem, 2017).

How the values were obtained:
[1] = tested on: Leishmania donovani; assay: Antileishmanial activity against Leishmania donovani MHOM/IN/AG/83 promastigotes after 48 hrs by MTT assay; assay type: functional, organism-based; details: MHOM/IN/AG/83, 48 h
[2] = tested on: Peritoneal macrophage; assay: Induction of NO generation in Leishmania donovani MHOM/IN/AG/83 infected BALB/c mouse peritoneal macrophages assessed as nitrite levels after 48 hrs by Griess assay relative to untreated control; assay type: functional; also: test concentration or dose not given here
[3] = Therapeutic index, ratio of EC50 for BALB/c mouse peritoneal macrophages to EC50 for Leishmania donovani MHOM/IN/AG/83 amastigotes; assay type: toxicity; details: read-out: Ratio EC50
[4] = Therapeutic index, ratio of IC50 for mouse RAW264.7 cells to IC50 for Leishmania donovani MHOM/IN/AG/83 promastigotes; assay type: toxicity; details: read-out: Ratio IC50
[5] = tested on: Peritoneal macrophage; assay: Cytotoxicity against BALB/c mouse peritoneal macrophages after 48 hrs by MTT assay; assay type: cell-based
[6] = tested on: RAW264.7; assay: Cytotoxicity against mouse RAW264.7 cells after 48 hrs by MTT assay; assay type: cell-based; details: RAW264.7, 48 h
[7] = tested on: Leishmania donovani; assay: Antileishmanial activity against Leishmania donovani MHOM/IN/AG/83 amastigotes infected in BALB/c mouse peritoneal macrophages after 42 hrs by Giemsa staining-based microscopic analysis; assay type: functional, organism-based; details: MHOM/IN/AG/83, 42 h

Compound | IC50 [1] | Activity [2] | Activity ([2]; record 2) | selectivity ratio [3] | selectivity ratio [4] | EC50 [5] | IC50 [6] | EC50 [7]
C=CCc1ccc(OC(=O)CCCCCCCC)c(OC)c1 | 93.6 µM | Dose-dependent effect | 27.14 µM | 6.52 | 3.37 | 343 µM | 317 µM | 52.9 µM
C=CCc1ccc(OC(=O)C2CCNCC2)c(OC)c1 | 89 µM | Dose-dependent effect | 21.55 µM | 4.66 | 2.96 | 307 µM | 261 µM | 66.3 µM
C=CCc1ccc(OC(=O)CCCCCCCCC)c(OC)c1 | 67.5 µM | Dose-dependent effect | 27.31 µM | 12.4 | 5.66 | 404 µM | 373 µM | 33.1 µM
C=CCc1ccc(OCCCCCCCC)c(OC)c1 | 62.3 µM | Dose-dependent effect | 26.01 µM | 8.3 | 5.85 | 393 µM | 357 µM | 48.7 µM
C=CCc1ccc(OC(=O)CCCC)c(OC)c1 | 106 µM | Dose-dependent effect | 24.39 µM | 5.41 | 3.49 | 353 µM | 368 µM | 65.6 µM
C=CCc1ccc(OC(=O)[C@@H]2CCCN2)c(OC)c1 | 97.4 µM | Dose-dependent effect | 21.87 µM | 4.49 | 2.87 | 326 µM | 278 µM | 72.9 µM
C=CCc1ccc(OC(=O)CC)c(OC)c1 | 146 µM | Dose-dependent effect | 12.19 µM | 3.86 | 3.1 | 429 µM | 448 µM | 112 µM
C=CCOc1ccc(CC=C)cc1OC [ALLYLEUGENOL] | 238 µM | Dose-dependent effect | 13.86 µM | 2.95 | 1.64 | 353 µM | 385 µM | 120 µM
C=CCc1ccc(OCCCCCCCCCC)c(OC)c1 | 49.9 µM | Dose-dependent effect | 26.17 µM | 9.67 | 8.61 | 272 µM | 412 µM | 29 µM
C=CCc1ccc(OC(=O)[C@@H](N)Cc2c[nH]c3ccccc23)c(OC)c1 | 53 µM | Dose-dependent effect | 28.78 µM | 22.1 | 8.6 | 471 µM | 451 µM | 21.6 µM
C=CCc1ccc(OC(=O)CCCCCCCCCCC)c(OC)c1 | 56.2 µM | Dose-dependent effect | 34.28 µM | 25.9 | 9.36 | 498 µM | 529 µM | 19.6 µM
C=CCc1ccc(OC(=O)c2cccc([N+](=O)[O-])c2)c(OC)c1 | 76.9 µM | Dose-dependent effect | 24.58 µM | 8.36 | 3.33 | 218 µM | 255 µM | 26.2 µM
C=CCc1ccc(OC(=O)c2ccc(F)cc2)c(OC)c1 | 61.3 µM | Dose-dependent effect | 14.56 µM | 5.24 | 5.93 | 400 µM | 364 µM | 78.4 µM
C=CCc1ccc(OC)c(OC)c1 [METHYLEUGENOL] | 475 µM | Dose-dependent effect | 10.82 µM | 2.39 | 1.09 | 485 µM | 517 µM | 203 µM
CCCCCCCCCCCCCCCCOP(=O)([O-])OCC[N+](C)(C)C [MILTEFOSINE] | 10.4 µM | Dose-dependent effect | 26.01 µM | 6.34 | 4.3 | 40.7 µM | 44.8 µM | 6.4 µM
C=CCc1ccc(OCC)c(OC)c1 [ETHYLEUGENOL] | 71.7 µM | Dose-dependent effect | 10.43 µM | 0.55 | 1.43 | 90.5 µM | 102 µM | 162 µM
C[C@@H]1[C@H](O)[C@@H](C)/C=C/C=C/C=C/C=C/C=C/C=C/C=C/[C@H](O[C@@H]2O[C@H](C)[C@@H](O)[C@H](N)[C@@H]2O)C[C@@H]2O[C@](O)(C[C@@H](O)C[C@@H](O)[C@H](O)CC[C@@H](O)C[C@@H](O)CC(=O)O[C@H]1C)C[C@H](O)[C@H]2C(=O)O [AMPHOTERICIN B] | 1.36 µM | Dose-dependent effect |  | 7.78 | 7.4 | 9.18 µM | 10 µM | 1.18 µM
C=CCc1ccc(OC(=O)Cc2ccccc2)c(OC)c1 | 33.4 µM | Dose-dependent effect | 36.45 µM | 41.8 | 11.8 | 385 µM | 391 µM | 9.28 µM
C=CCc1ccc(OCCC)c(OC)c1 [PROPYLEUGENOL] | 133 µM | Dose-dependent effect | 10.64 µM | 0.71 | 0.83 | 111 µM | 110 µM | 156 µM
C=CCc1ccc(OC(=O)CCCCCC)c(OC)c1 | 103 µM | Dose-dependent effect | 25.84 µM | 8.3 | 4.95 | 491 µM | 512 µM | 59.6 µM
C=CCc1ccc(OC(=O)CCCCCCCCCCCCCCC)c(OC)c1 | 43.3 µM | Dose-dependent effect | 39.42 µM | 42.2 | 8.56 | 357 µM | 374 µM | 8.54 µM
C=CCc1ccc(OC(=O)CCCCCCC)c(OC)c1 | 68.3 µM | Dose-dependent effect | 24.23 µM | 11 | 8.95 | 565 µM | 580 µM | 53.3 µM
C=CCc1ccc(OCCCCCCCCCCCCCCCC)c(OC)c1 | 58.1 µM | Dose-dependent effect | 29.1 µM | 14.5 | 5.02 | 251 µM | 292 µM | 17.1 µM
C=CCc1ccc(OCCCCCCC)c(OC)c1 | 61.3 µM | Dose-dependent effect | 22.43 µM | 4.88 | 3.28 | 197 µM | 198 µM | 41.1 µM
